Structures are written as SMILES. Active and inactive are the calls of the source. Cut-off read from the data, not from the text of the source, for most assays here: actives have a measured EC50 and inactives only a lower limit. A value given as a limit tells only on which side of the number the result lay.

The values below come from ChEMBL document CHEMBL1201862, “PubChem BioAssay data set” (2004).

Experiment [1] can be described thus: inhibitors of SNCA 5'UTR-driven reporter translation, confirmation, H4 neuroglioma cells, luminescence (AID 1988). The class given is functional, cell-based.
Experiment [2] is described as follows: Luminescence Cell-Based Dose Response HTS to Identify Inhibitors of 5'UTR Stem-Loop Driven Prion Protein mRNA Translation in H4 Neuroglioblastoma Cells. [Related pubchem assays: 1827 (Project Summary), 1813 (Primary HTS)]. Type of experiment: functional.
In experiment [3] the target is Luciferin 4-monooxygenase (Photinus pyralis, UniProt P08659). In words: Counter Screen for Luciferase-based Assay Positives. [Related pubchem assays: 620, 618, 411 ].
Experiment [4] can be described thus: inhibitors of firefly luciferase expression or activity, dose response, H4 neuroglioma cells, luminescence (AID 1990). The class given is functional, cell-based.
Experiment [5] deals with T1, Heat shock factor protein 1 (Mus musculus, UniProt P38532).
T1 sequence (P38532 whole entry): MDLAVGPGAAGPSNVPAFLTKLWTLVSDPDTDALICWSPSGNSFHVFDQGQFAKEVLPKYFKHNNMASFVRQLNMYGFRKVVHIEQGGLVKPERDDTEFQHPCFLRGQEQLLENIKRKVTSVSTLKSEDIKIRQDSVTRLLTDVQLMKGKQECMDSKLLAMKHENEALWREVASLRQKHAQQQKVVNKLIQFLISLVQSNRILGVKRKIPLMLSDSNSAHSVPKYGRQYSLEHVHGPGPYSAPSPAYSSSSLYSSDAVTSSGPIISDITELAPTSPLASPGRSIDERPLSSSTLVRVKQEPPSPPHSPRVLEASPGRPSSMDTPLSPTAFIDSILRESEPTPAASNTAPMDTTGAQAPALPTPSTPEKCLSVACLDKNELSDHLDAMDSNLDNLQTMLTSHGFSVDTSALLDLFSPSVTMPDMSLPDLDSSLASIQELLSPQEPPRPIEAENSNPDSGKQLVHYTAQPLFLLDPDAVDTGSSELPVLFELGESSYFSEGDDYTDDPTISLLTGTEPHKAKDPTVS
Briefly: HSF1 potentiators in luciferase reporter cells, confirmation, cell-based, NIH3T3, luminescence, dose retest (AID 435004).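 Note: stress induced by proteasome inhibitor MG132 added 30 min after compound; luciferase reporter driven by HSF1 response element in NIH3T3 cells; actives raise luminescence as potentiators of the MG132 stress response.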 The class given is functional.

In the next experiment the test system is HT-1080. In words: cytotoxicity in HT1080 fibrosarcoma cells, cell-based, fluorescence readout (AID 620). Type of experiment: functional. The conditions noted are these: Homo sapiens.
For another experiment, the system named is HEK293. In words: inhibitors of LMP1-driven NF-kB reporter, dose response, cell-based, HEK293, luciferase, cherry-pick (AID 588343). The class given is functional. The conditions noted are these: Homo sapiens.
Experiment [6] has as its target Glyceraldehyde-3-phosphate dehydrogenase (Homo sapiens, UniProt P04406).
Experiment [7] has as its target T2, Mannose-6-phosphate isomerase (Homo sapiens, UniProt P34949).
T2 sequence (P34949 whole entry): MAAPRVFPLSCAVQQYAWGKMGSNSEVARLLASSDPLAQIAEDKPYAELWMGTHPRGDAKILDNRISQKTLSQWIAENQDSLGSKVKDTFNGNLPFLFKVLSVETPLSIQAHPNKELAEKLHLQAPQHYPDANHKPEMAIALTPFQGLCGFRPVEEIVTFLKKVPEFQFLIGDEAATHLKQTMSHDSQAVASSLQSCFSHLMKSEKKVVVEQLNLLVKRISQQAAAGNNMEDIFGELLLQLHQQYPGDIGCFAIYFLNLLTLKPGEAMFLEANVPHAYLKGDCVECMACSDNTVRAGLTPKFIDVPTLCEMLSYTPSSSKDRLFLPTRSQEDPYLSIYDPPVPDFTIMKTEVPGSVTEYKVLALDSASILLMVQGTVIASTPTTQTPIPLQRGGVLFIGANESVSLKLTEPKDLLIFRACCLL
Briefly: human PMI inhibitors, high substrate, primary screen, biochemical, fluorescence intensity, high mannose 6-phosphate (AID 1220).

Experiment [8] is described as follows: cytotoxicity in HEK-293T cells, dose response, cytotoxicity control for BCR NF-kB inhibitor project, luminescence, B-cell screen hits (AID 489021).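 Note: HEK-293T cells carrying an NF-kB luciferase reporter; cells exposed to compound for about 14 hours before viability readout.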 Type of experiment: functional, cell-based.
The target of experiment [9] is T3, Replicative DNA helicase DnaB (Mycobacterium tuberculosis, UniProt P9WMR3).
T3 sequence (P9WMR3 whole entry): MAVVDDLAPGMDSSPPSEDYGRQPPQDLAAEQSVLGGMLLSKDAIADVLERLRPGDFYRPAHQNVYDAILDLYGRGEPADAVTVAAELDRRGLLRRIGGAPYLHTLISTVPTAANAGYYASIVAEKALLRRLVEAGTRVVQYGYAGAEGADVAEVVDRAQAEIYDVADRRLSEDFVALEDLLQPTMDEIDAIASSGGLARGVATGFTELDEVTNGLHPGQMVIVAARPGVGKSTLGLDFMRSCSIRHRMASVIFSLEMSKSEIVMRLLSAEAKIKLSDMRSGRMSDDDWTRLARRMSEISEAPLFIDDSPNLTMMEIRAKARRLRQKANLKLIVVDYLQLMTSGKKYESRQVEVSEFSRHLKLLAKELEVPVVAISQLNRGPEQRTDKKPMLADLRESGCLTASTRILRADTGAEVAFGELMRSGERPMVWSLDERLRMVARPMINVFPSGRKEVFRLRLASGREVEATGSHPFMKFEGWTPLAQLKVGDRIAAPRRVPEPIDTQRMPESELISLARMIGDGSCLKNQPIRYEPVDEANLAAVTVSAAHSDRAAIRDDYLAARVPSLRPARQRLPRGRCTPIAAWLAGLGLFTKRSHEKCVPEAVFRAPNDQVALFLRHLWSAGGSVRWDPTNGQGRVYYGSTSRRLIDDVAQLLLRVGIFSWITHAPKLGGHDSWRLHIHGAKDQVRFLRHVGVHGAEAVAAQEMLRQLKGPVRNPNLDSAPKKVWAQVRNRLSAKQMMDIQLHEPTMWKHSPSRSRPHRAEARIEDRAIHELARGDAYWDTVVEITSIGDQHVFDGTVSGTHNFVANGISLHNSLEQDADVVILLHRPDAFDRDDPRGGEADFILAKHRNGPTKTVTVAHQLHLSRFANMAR
Briefly: DnaB intein splicing inhibitors, dose response, biochemical, cell-free fluorescence (AID 449749). Type of experiment: functional.

Experiment [10] concerns the target T4, Histone-lysine N-methyltransferase NSD2 (Homo sapiens, UniProt O96028).
T4 sequence (O96028 whole entry): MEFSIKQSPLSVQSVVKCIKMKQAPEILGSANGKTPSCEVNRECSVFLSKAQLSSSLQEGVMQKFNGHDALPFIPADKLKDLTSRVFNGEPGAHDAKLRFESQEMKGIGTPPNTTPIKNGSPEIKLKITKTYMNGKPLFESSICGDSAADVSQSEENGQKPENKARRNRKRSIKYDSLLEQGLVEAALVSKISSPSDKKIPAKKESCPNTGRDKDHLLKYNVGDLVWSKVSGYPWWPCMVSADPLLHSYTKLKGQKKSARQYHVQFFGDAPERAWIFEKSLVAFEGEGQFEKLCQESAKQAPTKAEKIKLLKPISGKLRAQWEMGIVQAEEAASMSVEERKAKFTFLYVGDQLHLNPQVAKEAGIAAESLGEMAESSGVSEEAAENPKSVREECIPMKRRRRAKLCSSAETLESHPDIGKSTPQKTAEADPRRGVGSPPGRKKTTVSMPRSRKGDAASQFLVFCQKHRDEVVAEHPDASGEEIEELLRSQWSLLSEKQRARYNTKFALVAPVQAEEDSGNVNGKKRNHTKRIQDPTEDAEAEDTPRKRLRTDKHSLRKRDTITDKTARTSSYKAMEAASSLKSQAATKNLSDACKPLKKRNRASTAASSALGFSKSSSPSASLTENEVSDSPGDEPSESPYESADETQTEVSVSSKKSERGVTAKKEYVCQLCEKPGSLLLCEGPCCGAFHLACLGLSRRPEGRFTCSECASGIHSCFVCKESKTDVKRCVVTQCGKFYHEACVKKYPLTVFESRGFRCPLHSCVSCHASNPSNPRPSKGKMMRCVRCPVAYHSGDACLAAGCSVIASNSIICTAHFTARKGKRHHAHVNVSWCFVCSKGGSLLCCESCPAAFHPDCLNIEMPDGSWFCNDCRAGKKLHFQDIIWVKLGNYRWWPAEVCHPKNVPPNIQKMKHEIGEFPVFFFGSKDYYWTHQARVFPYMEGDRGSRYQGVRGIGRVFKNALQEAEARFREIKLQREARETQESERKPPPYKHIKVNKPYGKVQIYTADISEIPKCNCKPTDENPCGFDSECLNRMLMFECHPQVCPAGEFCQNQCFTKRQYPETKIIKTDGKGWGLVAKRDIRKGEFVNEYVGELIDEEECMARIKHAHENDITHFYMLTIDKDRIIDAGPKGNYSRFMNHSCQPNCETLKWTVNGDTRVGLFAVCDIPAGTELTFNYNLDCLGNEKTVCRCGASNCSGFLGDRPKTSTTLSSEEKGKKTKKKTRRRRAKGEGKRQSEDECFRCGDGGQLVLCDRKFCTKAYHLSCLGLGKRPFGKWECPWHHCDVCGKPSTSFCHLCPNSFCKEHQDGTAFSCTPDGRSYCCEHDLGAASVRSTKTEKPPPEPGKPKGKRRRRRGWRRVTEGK
Type of experiment: biochemical.

The next experiment deals with T5, Protein RecA (Mycobacterium tuberculosis, UniProt P9WHJ3).
T5 sequence (P9WHJ3 whole entry): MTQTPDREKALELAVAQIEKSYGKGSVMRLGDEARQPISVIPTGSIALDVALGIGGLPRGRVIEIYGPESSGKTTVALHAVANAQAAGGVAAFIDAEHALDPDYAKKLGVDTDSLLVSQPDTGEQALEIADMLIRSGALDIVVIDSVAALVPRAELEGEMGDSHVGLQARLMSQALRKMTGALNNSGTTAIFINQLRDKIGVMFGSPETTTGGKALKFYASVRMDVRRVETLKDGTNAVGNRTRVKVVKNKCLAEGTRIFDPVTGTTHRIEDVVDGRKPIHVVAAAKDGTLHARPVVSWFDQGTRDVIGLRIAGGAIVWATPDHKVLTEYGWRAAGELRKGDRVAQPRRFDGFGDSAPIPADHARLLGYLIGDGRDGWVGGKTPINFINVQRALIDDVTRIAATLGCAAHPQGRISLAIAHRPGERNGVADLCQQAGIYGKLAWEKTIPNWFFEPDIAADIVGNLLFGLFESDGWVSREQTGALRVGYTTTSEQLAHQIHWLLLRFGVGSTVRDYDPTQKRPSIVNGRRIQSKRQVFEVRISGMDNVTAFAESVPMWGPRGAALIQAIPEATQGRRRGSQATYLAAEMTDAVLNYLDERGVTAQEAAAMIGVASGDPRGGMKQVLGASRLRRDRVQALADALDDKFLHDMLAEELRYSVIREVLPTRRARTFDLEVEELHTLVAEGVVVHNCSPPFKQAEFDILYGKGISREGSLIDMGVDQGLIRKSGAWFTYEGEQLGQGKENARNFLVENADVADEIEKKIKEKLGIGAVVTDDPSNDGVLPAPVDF
Briefly: Fluorescence Cell-Free Homogeneous Dose Retest to Identify Inhibitors of RecA-Intein Splicing Activity. [Related pubchem assays (depositor defined):AID2097, AID2223, AID489010, AID492950]. Type of experiment: functional.

In the next experiment the target is Estrogen receptor beta (Homo sapiens, UniProt Q92731). Briefly: ERβ–SRC-3 coactivator interaction inhibitors, confirmation, orthogonal assay, biochemical, ELISA, streptavidin-HRP readout (AID 1060). A general note: In an ELISA, binding on a coated surface is turned into a signal by an enzyme label.
Experiment [11] in a line: inhibitors of intracellular T. cruzi replication, confirmation, NIH3T3 host cells, beta-gal luminescence (AID 2044).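 Note: intracellular parasites grown in NIH/3T3 mouse fibroblasts as host cells; luminescent beta-galactosidase reporter signal from transgenic T. cruzi replicating inside host cells; inhibitors lower the luminescence signal.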 The class given is functional, cell-based.
Experiment [12] in a line: cytotoxicity toward NIH3T3 fibroblasts, dose response, counter-screen, cell-based, ATP luminescence, mouse fibroblasts (AID 2010).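 Note: cells exposed to compound for about 90 hours before reading.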 Type of experiment: functional. (In general: Counterscreens check selectivity or assay interference.)

Chain of Estrogen receptor beta (Q92731 whole entry): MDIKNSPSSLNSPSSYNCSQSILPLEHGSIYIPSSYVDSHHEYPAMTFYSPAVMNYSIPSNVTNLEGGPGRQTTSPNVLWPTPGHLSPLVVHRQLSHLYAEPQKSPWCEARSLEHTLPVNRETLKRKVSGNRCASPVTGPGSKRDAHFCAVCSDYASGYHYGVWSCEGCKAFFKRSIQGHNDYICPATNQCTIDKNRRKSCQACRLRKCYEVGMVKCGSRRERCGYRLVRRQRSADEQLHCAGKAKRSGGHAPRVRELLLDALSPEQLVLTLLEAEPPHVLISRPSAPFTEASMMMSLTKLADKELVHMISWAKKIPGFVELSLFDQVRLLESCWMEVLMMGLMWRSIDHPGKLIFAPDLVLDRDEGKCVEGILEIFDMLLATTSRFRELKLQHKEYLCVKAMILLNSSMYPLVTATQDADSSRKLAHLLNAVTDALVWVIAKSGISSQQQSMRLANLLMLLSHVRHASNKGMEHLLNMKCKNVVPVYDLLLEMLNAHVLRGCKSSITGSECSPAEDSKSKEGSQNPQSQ
Chain of Luciferin 4-monooxygenase (P08659 whole entry): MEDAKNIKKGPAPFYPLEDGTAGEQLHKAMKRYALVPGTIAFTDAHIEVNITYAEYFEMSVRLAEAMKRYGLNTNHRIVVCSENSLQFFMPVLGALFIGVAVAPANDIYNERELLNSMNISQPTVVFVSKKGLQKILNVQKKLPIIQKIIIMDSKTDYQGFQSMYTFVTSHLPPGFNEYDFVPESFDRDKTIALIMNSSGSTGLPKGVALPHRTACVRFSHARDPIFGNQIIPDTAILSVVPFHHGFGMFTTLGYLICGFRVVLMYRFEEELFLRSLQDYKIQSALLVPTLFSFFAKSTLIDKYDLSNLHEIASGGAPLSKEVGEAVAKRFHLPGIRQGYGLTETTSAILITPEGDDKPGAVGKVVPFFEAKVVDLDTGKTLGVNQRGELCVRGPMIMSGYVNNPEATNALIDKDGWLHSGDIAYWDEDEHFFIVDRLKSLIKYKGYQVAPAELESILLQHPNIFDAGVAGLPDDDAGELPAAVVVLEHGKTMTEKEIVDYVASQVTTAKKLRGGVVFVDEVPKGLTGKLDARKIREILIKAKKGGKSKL
Chain of Glyceraldehyde-3-phosphate dehydrogenase (P04406 whole entry): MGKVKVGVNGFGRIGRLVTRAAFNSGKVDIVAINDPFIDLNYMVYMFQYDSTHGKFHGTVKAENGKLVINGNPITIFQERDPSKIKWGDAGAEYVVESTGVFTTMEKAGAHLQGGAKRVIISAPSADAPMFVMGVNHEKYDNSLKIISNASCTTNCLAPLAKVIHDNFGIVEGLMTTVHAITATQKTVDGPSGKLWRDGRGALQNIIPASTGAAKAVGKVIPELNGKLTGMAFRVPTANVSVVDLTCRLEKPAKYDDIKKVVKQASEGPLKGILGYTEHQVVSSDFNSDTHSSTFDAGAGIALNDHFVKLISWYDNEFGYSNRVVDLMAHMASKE

For `Cc1ccc(C(=O)CSc2nnnn2C(C)C)c(C)c1`, the EC50 (usually the concentration needed to bring the measured effect to its halfway point) in [1] is 3.7 µM (active); in experiment [2], 14.7 µM (active); in experiment [3], 8.28 µM (active); in experiment [4], 9.17 µM (active); in experiment [5], > 260 µM (inactive); with HT-1080, > 50 µM (not active). For the same molecule, in the experiment on HEK293, the AC50 (usually the concentration at which the activity in the assay is half-maximal) was 2.92 µM (active).
Take `O=C1C(Cl)=C(N2CCN(Cc3ccccc3)CC2)C(=O)N1c1ccnc(Cl)c1`: the IC50 (commonly the concentration needed to halve the response being measured) in experiment [6] was > 50 µM (inconclusive).
For the molecule `CCN(CC)c1ccc(N/C=C2\C(=O)NC(=O)N(CCc3ccc(OC)c(OC)c3)C2=O)cc1`, in [7], the IC50 was > 50 µM (not active).
In the case of `COc1ccc(-c2noc(CCCC(=O)Nc3ccc(C(N)=O)cc3)n2)cc1`, the IC50 in experiment [8] is > 80 µM (inactive).
`CC1=Nc2cccc3cccc(c23)N1C`: the AC50 in experiment [9] is > 380 µM (inactive); in [10], 1.25 µM (active). For the same molecule, the 50% inhibitory concentration (IC50) in experiment [7] is reported as > 50 µM (not active). Further, the EC50 on Protein RecA is > 380 µM (inactive).
Take `Cc1cc(-c2csc(N)n2)c(C)n1CCC(C)C`: the figures for the EC50 (in experiment [3]; with HT-1080) were 16 µM (active) and > 50 µM (not active), respectively.
In the case of `CCc1ccc(NC(=O)CSc2nc(C)cc(O)n2)cc1`, the IC50 against Estrogen receptor beta is on record as 48.8 µM (not active).
On to `CSCCC(=O)N(C)CC1CCCN(CCc2cccc(C(F)(F)F)c2)C1` (centres undefined), for which the half-maximal effective concentration (EC50) was < 0.1 µM (active) in experiment [11], 0.329 µM (active) in the experiment “cells” and > 60 µM (not active) in experiment [12].
Turning to `COCc1cc(CN2CCCC(C(=O)Nc3cccc(-n4cnnn4)c3)C2)ccc1OC` (centres undefined), the values for the EC50 (in [11]; in the experiment “cells”; in experiment [12]) were < 0.1 µM (active), 0.061 µM (active) and > 60 µM (not active), respectively.
`CC(=N)/C(C#N)=C(/O)CSc1nnnn1-c1ccccc1`: the IC50 against Estrogen receptor beta is > 50 µM (not active).
